Results taken from article PMC11510433, “Exploration of the Solubility Hyperspace of Selected Active Pharmaceutical Ingredients in Choline- and Betaine-Based Deep Eutectic Solvents: Machine Learning Modeling and Experimental Validation” (Molecules, 2024).
Like-named read-outs stand apart in the source and are kept apart here.

Legend:
[1] = set-up: method as in ref 2017-Zhong-10.1021acs.jced.7b00065; settings: solvent 1-propanol, ref 2017-Zhong-10.1021acs.jced.7b00065, cited from earlier work
[2] = A:D 1:1, x*DES 1.0 (water 0.00), T 25.0 °C, ref 2024-Cysewski-10.3390molecules29102296, cited from earlier work
[3] = shake-flask solubility of sulfonamides in choline chloride- and betaine-based deep eutectic solvents (new measurements); assay type: physicochemical
Method: The solubility measurements were preceded by the determination of the calibration curves for the studied sulfonamides. Stock solutions of these compounds were prepared in methanol and subsequently diluted. The obtained series of solutions with decreasing concentrations were then measured spectrophotometrically using an A360 spectrophotometer from AOE Instruments (Shanghai, China) in the wavelength range of 200 nm to 500 nm. Their characteristic wavelengths were determined, and the corresponding absorbance values were plotted against the concentrations of the solutions. Three separate curves were prepared, and the obtained values were averaged. The calibration curves were validated in terms of their linearity, expressed by the determination coefficient R^2, as well as the limits of detection (LOD) and quantification (LOQ).
For determining the solubility of the studied sulfonamides in different eutectic compositions, a standard shake-flask procedure was applied.
The first step in this procedure involved the preparation of the deep eutectic solvents, which was performed by combining a hydrogen bond donor with a hydrogen bond acceptor. The HBA:HBD molar ratio was set to 1:2. […] The eutectics were prepared by weighing appropriate amounts of the two counterparts in glass vessels and heating them until a homogenous solution was obtained.
The samples of sulfonamides in DESs were prepared by adding an excess amount of the solute to the test tube, followed by an addition of the specific eutectic. The saturated solutions obtained in this manner were placed in an Orbital Shaker Incubator ES-20/60 from Biosan (Riga, Latvia) and heated at 25 °C, 30 °C, 35 °C, or 40 °C for 24 h with stirring at 60 rev/min. Before the measurements, the samples were filtered using a 0.22 µm pore-size PTFE syringe filter. The spectra of the filtered solutions were recorded after the dilution with methanol in the 200 nm–500 nm wavelength range with a 1 nm resolution. […] The absorbance values found at the characteristic wavelengths were used together with the linear regression equations to calculate the concentration of the considered solutes. Simultaneously, for the computation of the mole fraction solubility, the density of the samples was determined by weighing 1 mL of the sample on a RADWAG (Radom, Poland) AS 110 R2.PLUS analytical balance with 0.1 mg precision. Three separate samples were measured for each system, and the values were averaged.

[4] = set-up: method as in ref 2014-Delgado-10.1007s10953-014-0169-0; settings: 1-Propanol + water, ref 2014-Delgado-10.1007s10953-014-0169-0, cited from earlier work
[5] = best-performing ChCl-TEG system, 1:2, 25 °C

In the case of `Cn1c(=O)c2c(ncn2C)n(C)c1=O` [caffeine], the “log(x1)exp” value ([1]; T 14.86 °C) is listed as -2.932, the “log(x1)exp” value ([1]; T 24.96 °C) is listed as -2.752 and the “log(x1)exp” value ([1]; T 34.94 °C) is listed as -2.550.

For `CC(C)Cc1ccc(C(C)C(=O)O)cc1` (stereo not shown) [ibuprofen], the “log(x1)exp” value ([2]; choline chloride + DEG) is listed as -0.616, the “log(x1)exp” value ([2]; choline chloride + P2D) is listed as -0.793 and the “log(x1)exp” value ([2]; choline chloride + TEG) is listed as -0.580.

`CCCN(CCC)S(=O)(=O)c1ccc(C(=O)O)cc1` [probenecid] showed a Mole fraction solubility [3, 5] of 0.00124 mole fraction.

In the case of `Cc1cc(C)nc(NS(=O)(=O)c2ccc(N)cc2)n1` [sulfamethazine], the “log(x1)exp” value ([4]; x2* 0.0322, x3* 0.97, T 20.00 °C) is listed as -4.226, the “log(x1)exp” value ([4]; x2* 0.0322, x3* 0.97, T 25.00 °C) is listed as -4.133 and the “log(x1)exp” value ([4]; x2* 0.0322, x3* 0.97, T 30.00 °C) is listed as -4.044.

For `O=C(O)c1cc(/N=N/c2ccc(S(=O)(=O)Nc3ccccn3)cc2)ccc1O` [sulfasalazine], the Mole fraction solubility ([3]; DES BI-DEG, HBA:HBD 1:2, 25°C) was 0.67(±0.09) mole fraction ∙10^4, the Mole fraction solubility ([3]; DES BI-DEG, HBA:HBD 1:2, 30°C) was 0.70(±0.08) mole fraction ∙10^4 and the Mole fraction solubility ([3]; DES BI-DEG, HBA:HBD 1:2, 35°C) was 0.75(±0.06) mole fraction ∙10^4. The Mole fraction solubility ([3]; DES BI-DEG, HBA:HBD 1:2, 40°C) was 0.79(±0.05) mole fraction ∙10^4, the Mole fraction solubility ([3]; DES BI-ETG, HBA:HBD 1:2, 25°C) was 0.55(±0.07) mole fraction ∙10^4 and the Mole fraction solubility ([3]; DES BI-ETG, HBA:HBD 1:2, 30°C) was 0.58(±0.02) mole fraction ∙10^4. For the same compound, the Mole fraction solubility ([3]; DES BI-ETG, HBA:HBD 1:2, 35°C) was 0.62(±0.06) mole fraction ∙10^4, the Mole fraction solubility ([3]; DES BI-ETG, HBA:HBD 1:2, 40°C) was 0.67(±0.08) mole fraction ∙10^4 and the Mole fraction solubility ([3]; DES BI-P2D, HBA:HBD 1:2, 25°C) was 0.41(±0.06) mole fraction ∙10^4. For the same compound, the Mole fraction solubility ([3]; DES BI-P2D, HBA:HBD 1:2, 30°C) was 0.46(±0.10) mole fraction ∙10^4, the Mole fraction solubility ([3]; DES BI-P2D, HBA:HBD 1:2, 35°C) was 0.49(±0.08) mole fraction ∙10^4 and the Mole fraction solubility ([3]; DES BI-P2D, HBA:HBD 1:2, 40°C) was 0.52(±0.04) mole fraction ∙10^4. For the same compound, the Mole fraction solubility ([3]; DES BI-TEG, HBA:HBD 1:2, 25°C) was 0.69(±0.04) mole fraction ∙10^4, the Mole fraction solubility ([3]; DES BI-TEG, HBA:HBD 1:2, 30°C) was 0.72(±0.02) mole fraction ∙10^4 and the Mole fraction solubility ([3]; DES BI-TEG, HBA:HBD 1:2, 35°C) was 0.77(±0.09) mole fraction ∙10^4. The Mole fraction solubility ([3]; DES BI-TEG, HBA:HBD 1:2, 40°C) was 0.81(±0.07) mole fraction ∙10^4, the Mole fraction solubility ([3]; DES ChCl-DEG, HBA:HBD 1:2, 25°C) was 0.71(±0.09) mole fraction ∙10^4 and the Mole fraction solubility ([3]; DES ChCl-DEG, HBA:HBD 1:2, 30°C) was 0.75(±0.07) mole fraction ∙10^4. For the same compound, the Mole fraction solubility ([3]; DES ChCl-DEG, HBA:HBD 1:2, 35°C) was 0.80(±0.14) mole fraction ∙10^4, the Mole fraction solubility ([3]; DES ChCl-DEG, HBA:HBD 1:2, 40°C) was 0.83(±0.02) mole fraction ∙10^4 and the Mole fraction solubility ([3]; DES ChCl-ETG, HBA:HBD 1:2, 25°C) was 0.62(±0.09) mole fraction ∙10^4. The Mole fraction solubility ([3]; DES ChCl-ETG, HBA:HBD 1:2, 30°C) was 0.65(±0.01) mole fraction ∙10^4, the Mole fraction solubility ([3]; DES ChCl-ETG, HBA:HBD 1:2, 35°C) was 0.69(±0.06) mole fraction ∙10^4 and the Mole fraction solubility ([3]; DES ChCl-ETG, HBA:HBD 1:2, 40°C) was 0.72(±0.08) mole fraction ∙10^4. For the same compound, the Mole fraction solubility ([3]; DES ChCl-P2D, HBA:HBD 1:2, 25°C) was 0.50(±0.08) mole fraction ∙10^4, the Mole fraction solubility ([3]; DES ChCl-P2D, HBA:HBD 1:2, 30°C) was 0.53(±0.03) mole fraction ∙10^4 and the Mole fraction solubility ([3]; DES ChCl-P2D, HBA:HBD 1:2, 35°C) was 0.56(±0.07) mole fraction ∙10^4. For the same compound, the Mole fraction solubility ([3]; DES ChCl-P2D, HBA:HBD 1:2, 40°C) was 0.59(±0.01) mole fraction ∙10^4, the Mole fraction solubility ([3]; DES ChCl-TEG, HBA:HBD 1:2, 25°C) was 0.75(±0.05) mole fraction ∙10^4 and the Mole fraction solubility ([3]; DES ChCl-TEG, HBA:HBD 1:2, 30°C) was 0.78(±0.07) mole fraction ∙10^4. The Mole fraction solubility ([3]; DES ChCl-TEG, HBA:HBD 1:2, 35°C) was 0.82(±0.01) mole fraction ∙10^4, the Mole fraction solubility ([3]; DES ChCl-TEG, HBA:HBD 1:2, 40°C) was 0.86(±0.02) mole fraction ∙10^4 and the Mole fraction solubility [3, 5] was 0.000075 mole fraction.
